The text below walks through data of ChEMBL document CHEMBL1201862, “PubChem BioAssay data set” (2004).

Some test systems named below: SK-OV-3; EKVX; CAKI-1; KM12; SF-539; SNB-75; HCC 2998; UACC-257; 786-0; HT-29; SNB-19; TK-10; CCRF-CEM; MCF7; LOX IMVI; HCT-116; UACC-62; NCI-H522; SK-MEL-5; BT-549.
Test in all cases: NCI tumour cell line growth inhibition, 48 h

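These data come from cells grown in 96-well plates and exposed to compound for 48 hours at five concentrations. GI50 marks 50% less growth.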 Calls of active or inactive are those of the source. Rule as the data show it: active = GI50 up to about 1.1 µM and inactive = higher.

In the case of `CS/C(N)=N/c1cccc2ccccc12`, the GI50 with SK-OV-3, with EKVX, with CAKI-1, in the assay on KM12, with SF-539 and with SNB-75 was > 10 µM (inactive) throughout. The GI50 in the assay on HCC 2998, in the assay with UACC-257, with 786-0, in the assay with HT-29, in the assay on SNB-19 and in the assay with TK-10 was > 10 µM (inactive) each time. Besides, the GI50 in the assay on CCRF-CEM, with MCF7, in the assay on LOX IMVI, in the assay with HCT-116, in the assay with UACC-62 and in the assay on NCI-H522 was > 10 µM (inactive) in each case. The GI50 with SK-MEL-5 was > 10 µM (inactive).

On to `CC(=O)Nc1ccc(N2C(=O)CS(=O)(=O)C2c2cccc(Oc3ccccc3)c2)cc1` (stereo not given), for which the GI50 in the assay with SK-OV-3 is 27.4 µM (inactive); in the assay with EKVX it was 15.4 µM (inactive); in the assay with KM12, 17.2 µM (inactive); in the assay with SF-539 it was 19.5 µM (inactive); in the assay on SNB-75 it was 19.4 µM (inactive); in the assay on UACC-257, 16.8 µM (inactive). Moreover, the GI50 in the assay with 786-0 is 17.1 µM (inactive); in the assay with HT-29, 19.1 µM (inactive); in the assay on SNB-19, 18 µM (inactive); with TK-10, 20.4 µM (inactive); in the assay with CCRF-CEM, 53.1 µM (inactive); with MCF7 it was 18.7 µM (inactive). The GI50 was 15.7 µM (inactive) with LOX IMVI; 16.8 µM (inactive) in the assay on BT-549; 20.1 µM (inactive) in the assay with HCT-116; 13.4 µM (inactive) in the assay on UACC-62; 17.2 µM (inactive) in the assay on NCI-H522; 14.7 µM (inactive) with SK-MEL-5.

For the compound `N=C(N)N/N=C/c1c(-c2ccccc2[N+](=O)[O-])nc2sccn12`, the GI50 in the assay on SK-OV-3 was 42.9 µM (inactive); in the assay with EKVX it was 43.8 µM (inactive); in the assay with CAKI-1 it was 64.9 µM (inactive); in the assay with KM12 it was 20.4 µM (inactive); in the assay with SF-539, 19.2 µM (inactive); with SNB-75, 11.9 µM (inactive). For the same compound, the GI50 was 18.3 µM (inactive) in the assay with UACC-257; 19.5 µM (inactive) with 786-0; 27.7 µM (inactive) with HT-29; 23.8 µM (inactive) with SNB-19; 23.6 µM (inactive) in the assay on TK-10; 19.4 µM (inactive) in the assay on CCRF-CEM. Also, the GI50 in the assay on MCF7 was 19.1 µM (inactive); in the assay on LOX IMVI, 19.9 µM (inactive); in the assay with BT-549 it was 30.7 µM (inactive); with HCT-116 it was 18.6 µM (inactive); in the assay with UACC-62, 17.5 µM (inactive); in the assay with NCI-H522, 17 µM (inactive). Also, in the assay on SK-MEL-5, the GI50 was 16.9 µM (inactive).

For `COC1CC2CCC(C)[C@](O)(O2)C(=O)C(=O)N2CCCCC2C(=O)OC(C(C)CC2CCC(O)C(OC)C2)CC(=O)C(C)C=C(C)C(OC(=O)CN(C)C)C(OC)C(=O)C(C)CC(C)/C=C/C=C/C=C\1C` (stereo not given in full), the GI50 in the assay with SK-OV-3 was < 0.01 µM (active); with EKVX it was < 0.01 µM (active); in the assay on KM12, 9.59 µM (inactive); in the assay with SF-539, < 0.01 µM (active); in the assay with SNB-75, < 0.01 µM (active); in the assay on UACC-257 it was 11.3 µM (inactive). Moreover, the GI50 in the assay on 786-0 is 10.8 µM (inactive); in the assay with HT-29, 3.81 µM (inactive); with SNB-19, < 0.01 µM (active); in the assay on TK-10, 11.6 µM (inactive); with CCRF-CEM it was < 0.01 µM (active); with MCF7, < 0.01 µM (active). In addition, the GI50 was < 0.01 µM (active) in the assay with LOX IMVI; < 0.01 µM (active) with BT-549; 5.87 µM (inactive) with HCT-116; < 0.01 µM (active) in the assay with UACC-62; 3.94 µM (inactive) in the assay with NCI-H522; 3.78 µM (inactive) in the assay on SK-MEL-5.

On to `N#C/C(=C\n1ccc(=O)[nH]c1=S)C(N)=O`, for which the GI50 in the assay on SK-OV-3, in the assay with EKVX, in the assay on CAKI-1, in the assay on KM12, in the assay with SF-539 and with SNB-75 was > 100 µM (inactive) throughout. Moreover, the GI50 in the assay with HCC 2998, with UACC-257, with 786-0, in the assay on HT-29, in the assay with SNB-19 and in the assay on CCRF-CEM was > 100 µM (inactive) each time. Also, the GI50 in the assay with MCF7, in the assay with LOX IMVI, in the assay on HCT-116, in the assay with UACC-62, in the assay on NCI-H522 and in the assay on SK-MEL-5 was > 100 µM (inactive) throughout.

For the compound `N#Cc1nc(C2CCC2)oc1N`, the GI50 in the assay on SK-OV-3, in the assay on EKVX, with CAKI-1, with KM12, in the assay on SF-539 and in the assay on SNB-75 was > 100 µM (inactive) throughout. Moreover, the GI50 in the assay with HCC 2998, with UACC-257, in the assay with 786-0, with HT-29, in the assay with SNB-19 and in the assay with TK-10 was > 100 µM (inactive) in each case. Further, the GI50 was 22.8 µM (inactive) in the assay on CCRF-CEM; > 100 µM (inactive) in the assay on MCF7; > 100 µM (inactive) with LOX IMVI; > 100 µM (inactive) in the assay with HCT-116; > 100 µM (inactive) in the assay on UACC-62; > 100 µM (inactive) in the assay on NCI-H522. The GI50 in the assay on SK-MEL-5 is > 100 µM (inactive).

In the case of `COC1(C)OC[C@@]2(C)OC(C)C1(C)C2O[Si](C(C)C)(C(C)C)C(C)C` (stereo not given in full), the GI50 in the assay with SK-OV-3 was 24.4 µM (inactive); in the assay with EKVX, 24.9 µM (inactive); in the assay on CAKI-1, 28.6 µM (inactive); in the assay with KM12 it was 31.8 µM (inactive); in the assay with SF-539, 33.1 µM (inactive); with SNB-75, 26.9 µM (inactive). In addition, the GI50 in the assay on HCC 2998 is 20.1 µM (inactive); with UACC-257, 19.9 µM (inactive); in the assay with 786-0 it was 43.2 µM (inactive); in the assay on HT-29, 28.7 µM (inactive); in the assay with SNB-19, 48.9 µM (inactive); with TK-10, 25.4 µM (inactive). Also, the GI50 in the assay on CCRF-CEM was 25.1 µM (inactive); in the assay on MCF7 it was 18.4 µM (inactive); in the assay on LOX IMVI, 20.7 µM (inactive); in the assay with HCT-116, 29.2 µM (inactive); with UACC-62 it was 31 µM (inactive); with NCI-H522, 27.9 µM (inactive). For the same compound, in the assay with SK-MEL-5, the GI50 was 20.9 µM (inactive).

`COc1ccc(C(=O)c2nc3ccccc3nc2N2CCN(c3ccccc3)CC2)cc1OC`: the GI50 in the assay with SK-OV-3, with EKVX, with CAKI-1, in the assay with KM12, in the assay on SF-539 and in the assay on SNB-75 was > 100 µM (inactive) each time. Moreover, the GI50 in the assay on HCC 2998, in the assay with UACC-257, with 786-0, with HT-29, with SNB-19 and with TK-10 was > 100 µM (inactive) throughout. The GI50 in the assay on CCRF-CEM is > 100 µM (inactive); with MCF7 it was 39.1 µM (inactive); with LOX IMVI, > 100 µM (inactive); with HCT-116, > 100 µM (inactive); in the assay with UACC-62, > 100 µM (inactive); in the assay with NCI-H522 it was > 100 µM (inactive). In the assay with SK-MEL-5, the GI50 was > 100 µM (inactive).

With `N#C/C(=C\c1cccc(Br)c1)c1nc2ccccc2c(=O)[nH]1`, the GI50 in the assay with SK-OV-3 was > 100 µM (inactive); with EKVX it was > 100 µM (inactive); with CAKI-1, > 100 µM (inactive); with KM12 it was > 100 µM (inactive); in the assay with SF-539, 47.9 µM (inactive); with SNB-75, 17.7 µM (inactive). Besides, the GI50 with HCC 2998 is > 100 µM (inactive); in the assay with UACC-257, > 100 µM (inactive); with 786-0, 49.4 µM (inactive); in the assay on HT-29, > 100 µM (inactive); in the assay with SNB-19 it was 43.7 µM (inactive); in the assay on TK-10 it was 42.1 µM (inactive). The GI50 in the assay with CCRF-CEM was > 100 µM (inactive); in the assay on MCF7 it was > 100 µM (inactive); in the assay with LOX IMVI, > 100 µM (inactive); with HCT-116 it was > 100 µM (inactive); in the assay on UACC-62, 76.2 µM (inactive); with NCI-H522 it was 37.9 µM (inactive). For the same compound, the GI50 in the assay on SK-MEL-5 was > 100 µM (inactive).

With `NC(=O)C(=CNC(=S)Nc1ccccc1)C(N)=O`, the GI50 in the assay with SK-OV-3 is > 100 µM (inactive); in the assay on EKVX it was > 100 µM (inactive); in the assay with CAKI-1 it was > 100 µM (inactive); with KM12, > 100 µM (inactive); with SF-539, > 100 µM (inactive); in the assay with SNB-75 it was 64.9 µM (inactive). Also, the GI50 in the assay on HCC 2998, in the assay with UACC-257, in the assay with 786-0, in the assay with HT-29, with SNB-19 and in the assay on CCRF-CEM was > 100 µM (inactive) each time. The GI50 in the assay on MCF7, in the assay on LOX IMVI, in the assay with HCT-116, in the assay with UACC-62, with NCI-H522 and in the assay on SK-MEL-5 was > 100 µM (inactive) in each case.

As to `O=C(CSCC(=O)N/N=C\c1ccccc1F)N/N=C\c1ccccc1F`, the GI50 is > 100 µM (inactive) with SK-OV-3; > 100 µM (inactive) in the assay on EKVX; > 100 µM (inactive) in the assay with CAKI-1; 92.9 µM (inactive) in the assay on KM12; > 100 µM (inactive) in the assay on SF-539; > 100 µM (inactive) in the assay on SNB-75. Besides, the GI50 was 38.5 µM (inactive) in the assay on HCC 2998; > 100 µM (inactive) with UACC-257; > 100 µM (inactive) in the assay on 786-0; > 100 µM (inactive) with HT-29; > 100 µM (inactive) in the assay on SNB-19; > 100 µM (inactive) with TK-10. Also, the GI50 in the assay on CCRF-CEM is 90.4 µM (inactive); with MCF7, > 100 µM (inactive); with LOX IMVI, > 100 µM (inactive); in the assay on HCT-116 it was > 100 µM (inactive); in the assay on UACC-62, > 100 µM (inactive); with NCI-H522, 64.6 µM (inactive). Also, in the assay with SK-MEL-5, the GI50 was 64.1 µM (inactive).
